Assays:
[1] = Electrical conductivity (ASTM D 2624); format: physicochemical; details: at 22° C.
Experimental: (§1) Applicants have unexpectedly discovered that TFMCB not only meets the challenging performance requirements for high temperature heat transfer applications and for electronic cooling but also satisfies exacting environmental and safety requirements. […] In particular, applicants have determined that TFMCB has a measured dielectric constant of 20 at 22° C. as determined by ASTM D2477-07 and has a measured electrical conductivity of less than 10 nS/cm at 22° C. as determined by ASTM D 2624.

[2] = Flammability / flash point (ASTM D3828, NFPA 30); format: physicochemical
Experimental: The flash pint of a thermal management fluid refers the lowest temperature at which vapors of the liquid will keep burning after the ignition source is removed as determined in accordance with ASTM D3828.
“Non-flammable” in the context of a thermal management composition or fluid means compounds or compositions which are determined to be non-flammable. The flash point of a thermal management composition or fluid refers the lowest temperature at which vapors of the composition will keep burning after the ignition source is removed as determined in accordance with ASTM D3828.

[3] = Acute inhalation toxicity (OECD Guideline No. 403); format: in vivo; details: statement in words
Excerpt: LC50 is a measure of the acute toxicity of a compound. The acute inhalation toxicity of a compound can be assessed using the method described in the OECD Guideline for Testing of Chemicals No. 403 “Acute Inhalation Toxicity” (2009), Method B.2. (Inhalation) of Commission Regulation (EC) No. 440/2008.

[4] = Dielectric constant (ASTM D2477-07); format: physicochemical; details: at 22° C.
Experimental: as §1

FC(F)(F)C1(F)CCC1(F)F (centres unmarked) [TFMCB, 1-trifluoromethyl-1,2,2-trifluorocyclobutane]
electrical conductivity [1]: less than 10 nS/cm | flammability [2]: non-flammable | flash point ([2]; ASTM D3828): no flash point below 100° F | toxicity [3]: low levels of toxicity | dielectric constant [4]: 20

From US20200205318A1, “HEAT TRANSFER FLUIDS, METHODS AND SYSTEMS” (priority 2018, published 2020)
